Measured values from US11667630B2, “Nitrogen-containing 6-membered cyclic compound” (Asahi Kasei Pharma Corporation, priority 2017, dated 2023).

What was measured:
human EP2 receptor = target: T1, human EP2 receptor (Homo sapiens, UniProt P43116); assay: Receptor binding test, [3H]PGE2 binding inhibition, EP2; conditions: [3H]PGE2 2.56 nmol/L, membrane fraction HTS185M, 25°C 60 minutes
T1 construct: purchased Merck Millipore HTS185M
Procedure: In order to evaluate selectivity to each EP receptor subtype, [^3H]PGE2 binding-inhibition activities of test compounds for cell membranes on which human EP2, human EP3, and human EP4 receptors were stably expressed were measured.
As the membrane fractions of the prostaglandin E receptors EP2, EP3, and EP4, 10.0 μg protein/tube each of HTS185M, HTS092M, and HTS142M of Merck Millipore were used, respectively. Each membrane fraction was incubated with a reaction mixture (250 μL/tube) containing a test compound and [3H]PGE2 at 25° C. for 60 minutes. […] After the reaction, the membrane fraction was collected on filter paper by using a cell harvester, the filter paper was transferred to a measurement vial, and the measurement was performed on a liquid scintillation counter.
The nonspecific binding was determined as binding observed in the presence of excess amount (10 μM) of unlabeled PGE2. The measurement of the [3H]PGE2 binding-inhibiting activity of a test compound was performed by adding the test compound at various concentrations. The following buffers were used for the reaction.
Buffer for EP2: 50 mmol/L HEPES-NaOH (pH 7.4) containing 5 mmol/L MgCl2, 1 mmol/L CaCl2), and 0.2% BSA

dog femur = assay: Neo-osteogenesis action in dog femur; assay type: in vivo; conditions: beagle dogs, four weeks
Procedure: In order to investigate an osteogenesis-promoting action of the compounds of the present invention, for influence of administration of microspheres containing a test compound in the vicinity of the femur of dog, osteogenesis-promoting action was evaluated by measuring new bone formed after the administration.
Nine to eleven months old female beagle dogs ([…] LABES) were anesthetized by administration of a 1:1 mixture of ketamine hydrochloride (Ketalar 500 mg, Daiichi Sankyo Propharma Co., Ltd.) and xylazine (Selactar 2% Injection, Bayer Yakuhin, Ltd.) at a dose of about 0.5 mL/kg, and isoflurane listed in Japanese Pharmacopoeia (Elucaine, Mylan Pharmaceutical) was used for maintenance anesthesia, which was administered with an inhaler IMPAC6 (VetEquip Inc.). After hair of the femoral region of the right hind leg was shaved, and disinfection treatment was performed, 350 μL of a microsphere suspension obtained by suspending microspheres (prepared according to the method of Preparation Example 1 or 2) containing a test compound (compound of Example 23) in a CMC solution was transdermally administered around the periosteum of the femoral diaphysis by using a 1-mL injection syringe and a 21G injection needle. The doses of the test compound were 0.01, 0.1, 1.0, 10, and 100 μg/site, and the aforementioned microspheres were used in an amount corresponding to each dose. As a control group, a drug liquid obtained by suspending the microspheres not containing the test compound in 350 μL of the CMC solution alone was administered. Four weeks after the administration of the drug liquid, the animals were euthanized by bleeding under pentobarbital sodium (Somnopentyl) anesthesia. The femurs of both sides were extracted, immersed in a 10% neutral buffered formalin solution, and stored. The bone mineral content of the femur was measured by using Discovery X-ray bone density analyzer (produced by Toyo Medic). The test was performed with the groups each consisting of 4 dogs

[1] = test system: rat femur closed fracture model; assay: Fracture healing-promoting action in rat femur closed fracture model; assay type: in vivo; conditions: SD rats; for Bone union rate after 25 days (%): judged on soft X-ray images; for Maximum torque (N · cm): torsion test of femur four weeks after fracture
Description: In order to investigate fracture healing-promoting action of the compounds of the present invention, influence of injection of microspheres containing a test compound at a fracture site of a rat femur closed fracture model was confirmed.
Thirteen weeks old female SD rats (Japan SLC) were fixed in the side lying position under triple anesthesia (medetomidine hydrochloride, midazolam, and butorphanol tartrate). After hair of a region from the left knee to the femoral region was shaved with a hair clipper, and disinfection treatment was performed with povidone-iodine listed in Japanese Pharmacopoeia (Isodine solution for animals, 20 mg of povidone-iodine listed in Japanese Pharmacopoeia in 1 mL, Meiji Seika Pharma), the skin of the knee part and the medial great muscle of the lateral part of the patella were excised, and the patella was shifted from the femoral head. A drill bit attached to a trephine was put on the intercondylar fossa of the exposed femoral head, and manually rotated to make a bore. A Kirschner wire (Mizuho Co., Ltd.) having a diameter of 1.2 mm preliminarily cut in a length of 31 mm was inserted into the medullary cavity of the femur through the bore. Then, the left femoral region was fixed on a three-point bending test jig of a small desktop universal testing machine (EZ Test, Shimadzu Corp.), and closed fracture of the femoral diaphyseal was caused by giving a dynamic load. Whether fracture was successfully introduced or not was confirmed by confirming generation of a complete transverse fracture in the femoral diaphyseal on an X-ray image obtained with a soft X-ray generator (M-100W, Softex) and a digital X-ray sensor (NX-04, RF Co., Ltd.). A microsphere suspension obtained by suspending microspheres (prepared according to the method of Preparation Example 3) containing a test compound (compound of Example 23) in a CMC solution was injected into the fracture part in a volume of 100 μL as the administration volume (containing 100 or 300 μg of the test compound). As the control group, a drug liquid obtained by suspending the microspheres not containing the aforementioned test compound in the CMC solution (100 μL) alone was administered. One, two, and three weeks after the generation of fracture, soft X-ray images were taken under isoflurane anesthesia, and the areas of the callus part in the X-ray images were quantified by using Image J. Four weeks after the generation of fracture, soft X-ray images were taken under triple anesthesia, the animals were fixed in the supine position, and euthanized by bleeding, and the left femurs were extracted. […] The femur samples were cryopreserved until implementation of a bone strength test, and torsional strength was measured on the test day by using a bone strength measurement apparatus (MZ-500S, Maruto Instrument Co., Ltd.).

[2] = microspheres (Preparation Example 3) containing compound of Example 23, 100 μg injected into fracture part
[3] = microspheres (Preparation Example 3) containing compound of Example 23, 300 μg injected into fracture part
[4] = microspheres containing compound of Example 23, 100 μg
[5] = microspheres containing compound of Example 23, 300 μg

T1 sequence (P43116 whole entry): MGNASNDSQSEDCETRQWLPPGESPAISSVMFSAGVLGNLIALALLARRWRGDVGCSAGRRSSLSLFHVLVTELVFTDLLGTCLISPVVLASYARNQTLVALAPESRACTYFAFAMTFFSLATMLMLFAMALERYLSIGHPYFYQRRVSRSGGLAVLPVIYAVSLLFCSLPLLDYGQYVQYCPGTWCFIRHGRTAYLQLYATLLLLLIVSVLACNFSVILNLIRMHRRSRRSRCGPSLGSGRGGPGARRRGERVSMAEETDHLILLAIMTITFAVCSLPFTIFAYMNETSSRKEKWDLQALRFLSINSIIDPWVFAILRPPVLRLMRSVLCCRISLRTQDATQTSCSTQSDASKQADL

In the case of `O=C(O)c1ccc(CCN2C(=O)SCCN2CC[C@@H](O)Cc2cccc(C#Cc3ccsc3)c2)s1` [Example 23, (S)-5-(2-(4-(3-Hydroxy-4-(3-(thiophen-3-ylethynyl)phenyl)butyl)-2-oxo-1,3,4-thiadiazinan-3-yl)ethyl)thiophene-2-carboxylic acid], the IC50 (human EP2 receptor) is reported as greater than 1000 nM, the “Bone mineral content of femur 1/3 center region (g) Left femur (no administration of compound)” value (dog femur; microspheres containing compound of Example 23, 0.01 μg/site at right femur) is reported as 2.9 ± 0.4 g and the “Bone mineral content of femur 1/3 center region (g) Right femur (administered with compound)” value (dog femur; microspheres containing compound of Example 23, 0.01 μg/site) is reported as 2.9 ± 0.4 g. For the same compound, the “Bone mineral content of femur 1/3 center region (g) Left femur (no administration of compound)” value (dog femur; microspheres containing compound of Example 23, 0.1 μg/site at right femur) was 2.6 ± 0.1 g, the “Bone mineral content of femur 1/3 center region (g) Right femur (administered with compound)” value (dog femur; microspheres containing compound of Example 23, 0.1 μg/site) was 2.7 ± 0.2 g and the “Bone mineral content of femur 1/3 center region (g) Left femur (no administration of compound)” value (dog femur; microspheres containing compound of Example 23, 1.0 μg/site at right femur) was 3.0 ± 0.1 g. The “Bone mineral content of femur 1/3 center region (g) Right femur (administered with compound)” value (dog femur; microspheres containing compound of Example 23, 1.0 μg/site) was 4.1 ± 0.4 g, the “Bone mineral content of femur 1/3 center region (g) Left femur (no administration of compound)” value (dog femur; microspheres containing compound of Example 23, 10 μg/site at right femur) was 2.8 ± 0.3 g and the “Bone mineral content of femur 1/3 center region (g) Right femur (administered with compound)” value (dog femur; microspheres containing compound of Example 23, 10 μg/site) was 6.4 ± 0.7 g. The “Bone mineral content of femur 1/3 center region (g) Left femur (no administration of compound)” value (dog femur; microspheres containing compound of Example 23, 100 μg/site at right femur) was 2.7 ± 0.4 g, the “Bone mineral content of femur 1/3 center region (g) Right femur (administered with compound)” value (dog femur; microspheres containing compound of Example 23, 100 μg/site) was 8.2 ± 1.1 g and the “Callus area (mm^2) One week after fracture” value [1, 2] was 5.24 ± 2.87 mm^2. For the same compound, the “Callus area (mm^2) Three weeks after fracture” value [1, 2] was 35.9 ± 6.3 mm^2, the “Callus area (mm^2) Two weeks after fracture” value [1, 2] was 28.6 ± 4.7 mm^2 and the “Callus area (mm^2) One week after fracture” value [1, 3] was 6.01 ± 2.75 mm^2. For the same compound, the “Callus area (mm^2) Three weeks after fracture” value [1, 3] was 33.8 ± 6.8 mm^2, the “Callus area (mm^2) Two weeks after fracture” value [1, 3] was 28.9 ± 3.8 mm^2 and the “Bone union rate after 25 days (%)” value [1, 4] was 90.0%. For the same compound, the “Maximum torque (N · cm)” value [1, 4] was 20.4 ± 7.1 N · cm, the “Bone union rate after 25 days (%)” value [1, 5] was 85.7% and the “Maximum torque (N · cm)” value [1, 5] was 26.3 ± 11.7 N · cm.
